One assay deals with rabbit skeletal myofibrils (fast skeletal myofibrils). Briefly: Activation of fast skeletal myofibrils (PUMA assay, PK/LDH-coupled ATPase at pCa25). It is filed as biochemical. Conditions: AC1.4 determined according to the procedure of Example 39; reported as class symbols. An outline of the steps: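 Detergent-washed rabbit psoas myofibrils (~90% fast fibres, calcium-regulated) assayed at calcium giving 25% of maximal ATPase rate (pCa25). ADP turnover coupled via pyruvate kinase/lactate dehydrogenase to NADH oxidation, read at 340 nm. Buffer 12 mM PIPES, 2 mM MgCl2, 1 mM DTT, pH 6.8; AC1.4 values derived.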
Turning to `CNc1n[nH]c2ccc(-c3ccc(NCC4(c5ncccc5F)CCC4)nn3)cc12` [{[(3-fluoro(2-pyridyl))cyclobutyl]methyl}{6-[3-(methylamino)(1H-indazol-5-yl)]pyridazin-3-yl}amine], the “Mean AC1.4” value is on record as “A (A=<1 uM)”. Still for that read-out and setting: in the case of `COc1ncc(-c2ccc(NCC3(c4ccc(F)cc4)CCC3)nn2)cn1` [{[(4-fluorophenyl)cyclobutyl]meth-yl}[6-(2-methoxypyrimidin-5-yl)pyridazin-3-yl]amine] it was “B (B=1-10 uM)”.

Still in this assay, the particulars now being: median AC1.4 class, procedure of Example 39.
On to `Fc1cccnc1-c1ccc(NCC2(c3ncccc3F)CCC2)nn1` [{[(3-fluoro(2-pyridyl))cyclobutyl]methyl}[6-(3-fluoro(2-pyridyl))pyridazin-3-yl]amine], for which the “Mean AC1.4” value is “B (B=1-10 uM)”. Take `Fc1cccnc1C1(CNc2ccc(-c3ccc(N4CCOCC4)cc3)nn2)CCC1` [{[(3-fluoro(2-pyridyl))cyclobutyl]methyl}[6-(4-morpholin-4-ylphenyl)pyridazin-3-yl]amine]: the “Mean AC1.4” value is “D (D=>20 uM)”. Still for that read-out and setting: in the case of `COc1ccc2nc(-c3ccc(NCC4(c5ncccc5F)CCC4)nn3)sc2n1` [{[(3-fluoro(2-pyridyl))cyclobutyl]methyl}[6-(5-methoxy(1,3-thiazolino[5,4-b]pyridin-2-yl))pyridazin-3-yl]amine] it was “D (D=>20 uM)”. On the same count and under the same terms, in the case of `COc1ccc(-c2ccc(NCC3(c4ncccc4F)CCC3)nn2)nc1` [{[(3-fluoro(2-pyridyl))cyclobutyl]methyl}[6-(5-methoxy(2-pyridyl))pyridazin-3-yl]amine] it was “B (B=1-10 uM)”; in that of `Fc1cccnc1C1(CNc2ccc(-c3ncc(-c4cc[nH]n4)s3)nn2)CCC1` [{[(3-fluoro(2-pyridyl))cyclobutyl]methyl}[6-(5-pyrazol-3-yl(1,3-thiazol-2-yl))pyridazin-3-yl]amine], “A (A=<1 uM)”; in that of `Fc1cccnc1C1(CNc2ccc(-c3ncc(-c4cn[nH]c4)s3)nn2)CCC1` [{[(3-fluoro(2-pyridyl))cyclobutyl]methyl}[6-(5-pyrazol-4-yl(1,3-thiazol-2-yl))pyridazin-3-yl]amine], “A (A=<1 uM)”. Still for that read-out and setting: in the case of `Fc1cccnc1C1(CNc2ccc(-c3ncc(CC(F)(F)F)s3)nn2)CCC1` [{[(3-fluoro(2-pyridyl))cyclobutyl]methyl}{6-[5-(2,2,2-trifluoroethyl)(1,3-thiazol-2-yl)]pyridazin-3-yl}amine] it was “B (B=1-10 uM)”; in that of “(2S)-2-amino-N-({2-[6-({[(3- fluoro(2- pyridyl))cyclobutyl]methyl}ami- no)pyridazin-3-yl](1,3-thiazol-5- yl)}methyl)-3-hydroxy-3- methylbutanamide”, “A (A=<1 uM)”; in that of “ethyl 2-[6-({[(3-fluoro-2- pyridyl)cyclobutyl]methyl}ami- no)pyridazin-3-yl]-1,3-thiazole-4- carboxylate”, “D (D=>20 uM)”.

The same assay, now with this note: median AC1.4 reported as class; procedure of Example 39.
In the case of `Fc1cccnc1C1(CNc2ccc(-c3ncc(CN4CCN(CC(F)(F)F)CC4)s3)nn2)CCC1` [{[(3-fluoro(2-pyridyl))cyclobutyl]methyl}[6-(5-{[4-(2,2,2-trifluoroethyl)piperazinyl]meth-yl}(1,3-thiazol-2-yl))pyridazin-3-yl]amine], the “Mean AC1.4” value was “B (B=1-10 uM)”.

As to `Fc1cccnc1C1(CNc2ccc(Cc3ccccc3)nn2)CCC1` [{[(3-fluoro(2-pyridyl))cyclobutyl]methyl}[6-benzylpyridazin-3-yl]amine], the “Mean AC1.4” value is “D (D=>20 uM)”. The same measure, in the same setting: in the case of `Fc1cccnc1C1(CNc2ccc(-c3ncc(CN4CCOCC4)s3)nn2)CCC1` [{[(3-fluoro(2-pyridyl))cyclobutyl]methyl}{6-[5-(morpholin-4-ylmethyl)(1,3-thiazol-2-yl)]pyridazin-3-yl}amine] it was “B (B=1-10 uM)”; in that of `Fc1cccnc1C1(CNc2ccc(-c3ncc(CN4CCNCC4)s3)nn2)CCC1` [{[(3-fluoro(2-pyridyl))cyclobutyl]methyl}{6-[5-(piperazinylmethyl)(1,3-thiazol-2-yl)]pyridazin-3-yl}amine], “B (B=1-10 uM)”; in that of “[6-({[(3-fluoro(2- pyridyl))cyclobutyl]methyl}ami- no)pyridazin-3-yl]-N-[(5- oxopyrrolidin-3- yl)methyl]carboxamide”, “D (D=>20 uM)”.

The values above are taken from patent US10076519B2 (CYTOKINETICS, INC., priority 2010, dated 2018).
